{"source": "patent US20030186315A1", "about": "“ADMINISTRATION OF AN AGENT WHICH DECREASES PROCESSING OF AMYLOID PRECURSOR PROTEIN” (priority 1999, published 2003)", "key": {"NT2N neurons [1]": {"test_system": "NT2N neurons", "experiment": "ELISA distinguishing Aβ40 and Aβ42 in cell lysates and medium of BFA-treated NT2N neurons", "format": "cell-based, human", "protocol": "Cell lysates and medium from the cells were then analyzed using an ELISA system which quantitatively distinguishes between Aβ40 and Aβ42 to ascertain whether alteration of Aβ levels by BFA was the result of altered levels of Aβ40, Aβ42 or both. Suzuki et al. 1994 Science 264:1336-1340. Results from the ELISA correlated with the immunoprecipitation data in that BFA abolished secretion of Aβ into the medium and reduced overall expression of intracellular Aβ by approximately 60%. However, it was the complete loss of […] that accounted for this decrease. […] Thus, γ-secretases appear to be active in the endoplasmic reticulum, but only to yield Aβ42. Further, it is believed that Aβ42 is preferentially generated in the ER while Aβ40, is generated in more distal components of the exocytic pathway.\nNT2N neurons were pretreated with 20 Ag/ml of BFA for 1 hour before the addition of 0.5 mCi/ml of [^35S] methionine to the cultures for 16 hours in the absence or presence of BFA. The cell lysates and media were processed for immunoprecipitation as described in Example 3. For deglycosylation of APPG, the immunoprecipitates containing APPβ were washed twice in sodium phosphate buffer (20 mmol/l, pH 7.2) and boiled for 2 minutes in 10 μl of 1% SDS. The samples were then boiled for an additional 2 minutes after adding 90 μl of the sodium phosphate buffer with sodium azide (10 mmol/l), EDTA (50 mmol/l), and n-Octylglucoside (0.5% w/v). After this denaturation step, deglycosylation was initiated by the addition of 2 mU Neuraminidase (Arthrobacter; Boehringer Mannheim, Indianapolis, Ind.), 2.5 mU 0-Glycosidase (Boehringer Mannheim, Indianapolis, Ind.), and 0.4 U N-Glycosidase F (Boehringer Mannheim, Indianapolis, IN). The samples were then incubated at 37° C. for 18 hours and deglycosylated APPβ was run on 7.5% SDS-PAGE gels as described in Example 2."}, "[2]": {"test_system": "human kidney 293 cells stably transfected with APPsw cDNA", "settings": "non-neuronal 293 cells expressing APPsw; cited from earlier work"}, "NT2N cells": {"test_system": "NT2N cells", "experiment": "Indirect immunofluorescence microscopy of cell surface distribution of SFV-expressed APP695 in NT2N cells", "format": "cell-based, human", "settings": "SFV-infected NT2N cells, 20 μg/ml BFA after infection", "protocol": "Since BFA treatment results in retention of all newly synthesized proteins in the ER, additional experiments were conducted to confirm that the generation of Aβ42 in the ER was not due to retention of newly synthesized proteases not being delivered to their proper site of action. Accordingly, an ER-retention signal was placed in APP695 in which the third and fourth amino acids from the C-terminus were changed to lysine (APP695ΔKK) . This lysine motif is sufficient to retain heterologous transmembrane proteins in the ER and intermediate compartment. In these experiments, recombinant Semliki Forest virus (SFV) vectors to express APP695ΔKK. Previous studies have shown that despite high levels of SFV-mediated APP expression, SFV infected NT2N cells display a high degree of fidelity in processing APP (Wertkin et al. 1993 Proc. Natl. Acad. Sci. USA 90:9513-9517; Turner et al. 1996 J. Biol. Chem. 271:8966-8970). […] To determine if APP695ΔKK was in fact retained in the ER, indirect immunofluorescence microscopy was used to monitor both intracellular and cell surface distribution of SFV-expressed APP695 and APP695ΔKK. While intracellular levels of APP695 and APP695ΔKK appeared similar, only APP695 was expressed on the cell surface. […]"}, "NT2N neurons [3]": {"test_system": "NT2N neurons", "experiment": "Brefeldin A treatment of [35S]methionine-labeled NT2N neurons, immunoprecipitation of APP fragments from cell lysates and media", "format": "cell-based, human", "text": "The detection of APPβ in the cell lysate of NT2N neurons, together with the presence of Aβ40 and Aβ42 (Turner et al. 1996 J. Biol. Chem. 271:8966-8970), establish that an intracellular β-secretase pathway(s) exists in these cells. At present, no other cell line has been reported to produce detectable levels of intracellular APPβ from endogenous or over-expressed wild-type APP (Seubert et al. 1993 Nature 361:260-263; Haass et al. 1995a Nature Med. 1:1291-1296; Thinakaran et al. 1996b J. Biol. Chem. 271:9390-9397). […] In the absence of BFA, APPFL, APPβ, and Aβ were recovered from the cell lysates while APPα, APPβ, and Aβ were detected in the media of NT2N neurons.\nCultured NT2N neurons were starved in methionine-free DMEM HG (Life Technologies, Inc., Gaithersburg, Md.) for 30 minutes prior to incubation in fresh methionine-free DMEM HG containing 0.5 mCi/ml of [^35S]methionine (sp act. 1000 Ci/mmol; NEN-DuPont, Boston, Mass.). […] Quantitation of bands in the autoradiogram was performed using the ImageQuant software (Molecular Dynamics Inc. Sunnyvale, Calif.) in accordance with procedures described by Turner et al. 1996 J. Biol. Chem. 271:8966-8970. Radiolabeled proteins in SDS-PAGE gels and nitrocellulose replicas were also analyzed by standard autoradiographic methods. […]"}}, "data": [{"smiles": "C[C@H]1CCC/C=C/[C@@H]2C[C@H](O)C[C@H]2[C@H](O)/C=C/C(=O)O1", "note": "[BFA, Brefeldin A]", "values": [{"measurement": "intracellular Aβ40", "setting": "NT2N neurons [1]; cell lysate", "result": "complete loss"}, {"measurement": "intracellular Aβ42", "setting": "NT2N neurons [1]; cell lysate", "result": "largely unaffected"}, {"measurement": "reduction of overall expression of intracellular Aβ", "setting": "NT2N neurons [1]; cell lysate", "result": "approximately 60%"}, {"measurement": "secretion of Aβ into the medium", "setting": "NT2N neurons [1]; medium", "result": "abolished"}, {"measurement": "APPβsw and Aβ production", "setting": "[2]", "result": "completely eliminates"}, {"measurement": "surface expression of APP695", "setting": "NT2N cells", "result": "blocked"}, {"measurement": "secretion of APPα, APPβ, and Aβ into the medium", "setting": "NT2N neurons [3]; 20 μg/ml BFA, immunoprecipitation of media", "result": "completely abolished"}, {"measurement": "electrophoretic mobility of APPβ from BFA-treated versus untreated cells", "setting": "NT2N neurons [3]; SDS-PAGE of immunoprecipitated APPβ", "result": "migrated more quickly"}]}]}
